pIC50: −log10 of the molar value.

Sequence of human sodium ion channel 1.7 (hNav1.7) (Q15858 whole entry): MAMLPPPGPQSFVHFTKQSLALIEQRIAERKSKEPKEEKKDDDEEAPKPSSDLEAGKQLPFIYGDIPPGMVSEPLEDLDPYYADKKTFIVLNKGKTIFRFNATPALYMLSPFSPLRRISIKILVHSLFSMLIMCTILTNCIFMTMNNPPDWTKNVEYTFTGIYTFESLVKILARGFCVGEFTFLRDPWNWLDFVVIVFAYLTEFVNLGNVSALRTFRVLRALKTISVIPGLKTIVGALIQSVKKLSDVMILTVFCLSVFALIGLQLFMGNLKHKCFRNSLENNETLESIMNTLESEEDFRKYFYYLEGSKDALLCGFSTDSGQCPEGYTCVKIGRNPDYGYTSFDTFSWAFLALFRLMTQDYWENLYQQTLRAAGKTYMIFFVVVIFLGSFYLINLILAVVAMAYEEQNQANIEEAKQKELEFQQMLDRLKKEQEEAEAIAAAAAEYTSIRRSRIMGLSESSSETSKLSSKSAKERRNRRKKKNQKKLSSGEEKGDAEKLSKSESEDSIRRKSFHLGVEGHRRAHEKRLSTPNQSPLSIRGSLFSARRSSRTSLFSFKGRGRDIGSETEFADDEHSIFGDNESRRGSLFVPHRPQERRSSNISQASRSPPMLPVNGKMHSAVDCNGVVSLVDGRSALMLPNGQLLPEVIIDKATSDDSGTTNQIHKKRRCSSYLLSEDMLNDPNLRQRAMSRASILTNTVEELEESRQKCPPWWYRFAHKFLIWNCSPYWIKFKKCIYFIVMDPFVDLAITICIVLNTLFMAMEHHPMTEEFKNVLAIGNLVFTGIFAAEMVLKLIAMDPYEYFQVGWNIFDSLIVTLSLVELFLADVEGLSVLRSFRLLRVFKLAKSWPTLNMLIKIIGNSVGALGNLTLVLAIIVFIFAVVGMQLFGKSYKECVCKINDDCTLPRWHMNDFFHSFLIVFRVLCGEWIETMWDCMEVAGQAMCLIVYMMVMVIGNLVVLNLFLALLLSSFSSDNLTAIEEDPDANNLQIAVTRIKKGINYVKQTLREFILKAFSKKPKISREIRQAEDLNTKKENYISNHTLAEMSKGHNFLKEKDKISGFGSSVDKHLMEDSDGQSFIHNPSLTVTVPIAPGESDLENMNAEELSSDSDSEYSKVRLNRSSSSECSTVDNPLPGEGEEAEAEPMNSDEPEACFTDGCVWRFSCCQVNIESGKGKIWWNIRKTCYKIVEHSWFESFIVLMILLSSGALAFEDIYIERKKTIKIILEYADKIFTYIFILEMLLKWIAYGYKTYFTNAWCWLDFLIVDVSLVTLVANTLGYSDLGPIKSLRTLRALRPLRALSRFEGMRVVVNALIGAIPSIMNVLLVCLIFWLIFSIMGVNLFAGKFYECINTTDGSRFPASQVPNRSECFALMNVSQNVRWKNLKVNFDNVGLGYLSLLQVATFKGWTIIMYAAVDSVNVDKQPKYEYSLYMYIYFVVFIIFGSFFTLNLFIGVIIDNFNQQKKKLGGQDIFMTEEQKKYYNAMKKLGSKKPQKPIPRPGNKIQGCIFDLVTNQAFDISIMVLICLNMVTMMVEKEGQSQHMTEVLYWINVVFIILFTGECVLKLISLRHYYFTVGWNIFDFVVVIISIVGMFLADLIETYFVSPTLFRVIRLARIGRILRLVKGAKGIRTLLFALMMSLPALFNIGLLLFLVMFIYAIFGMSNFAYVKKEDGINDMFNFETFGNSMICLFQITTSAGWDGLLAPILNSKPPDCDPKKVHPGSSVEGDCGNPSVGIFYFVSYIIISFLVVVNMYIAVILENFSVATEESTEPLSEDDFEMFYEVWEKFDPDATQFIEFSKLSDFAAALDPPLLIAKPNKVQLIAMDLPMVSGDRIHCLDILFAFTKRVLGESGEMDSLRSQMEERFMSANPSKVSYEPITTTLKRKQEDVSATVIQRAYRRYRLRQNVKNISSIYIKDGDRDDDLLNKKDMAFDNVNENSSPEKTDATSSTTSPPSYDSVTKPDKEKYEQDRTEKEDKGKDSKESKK

The first assay has as its target human sodium ion channel 1.7 (hNav1.7) (Homo sapiens, UniProt Q15858). Put plainly: Blocking effect against sodium ion channel Nav1.7, IonFlux16 auto patch clamp in hNav1.7 HEK293 cells. It counts as cell-based.
Settings: not given
As to `CS(=O)(=O)NC(=O)c1cc(Cl)c(-n2nc(-c3cc(F)c(F)c(F)c3)c3cc(Cl)ccc32)cc1F` [Example 77, 5-chloro-4-(5-chloro-3-(3,4,5-trifluorophenyl)-1H-indazol-1-yl)-2-fluoro-N-(methylsulfonyl)benzamide], the pIC50 (in general, −log10 of the IC50, conventionally taken in molar units) is 7.70.

The same assay, now with this note: hNav1.7 HEK293 cells; inhibition of peak current after 50 seconds treatment; eight concentrations; read-out: IC50.
As to `CS(=O)(=O)NC(=O)c1cc(Cl)c(-n2cc(-c3ccc(Cl)cc3Cl)c3cc(F)cnc32)cc1F` [Example 209, 5-chloro-4-(3-(2,4-dichlorophenyl)-5-fluoro-1H-pyrrolo[2,3-b]pyridin-1-yl)-2-fluoro-N-(methylsulfonyl)benzamide], the pIC50 is 7.40.
Same read-out and setting: with `CS(=O)(=O)NC(=O)c1cc(Cl)c(-n2nc(Cl)c3cc(-c4cccnc4)ccc32)cc1F` [Example 231, 5-chloro-4-(3-chloro-5-(pyridin-3-yl)-1H-indazol-1-yl)-2-fluoro-N-(methylsulfonyl)benzamide] the figure was 5.00 to 5.52; with `CS(=O)(=O)NC(=O)c1cc(Cl)c(-n2nc(Cl)c3cc(-c4ccccc4)ccc32)cc1F` [Example 230, 5-chloro-4-(3-chloro-5-phenyl-1H-indazol-1-yl)-2-fluoro-N-(methylsulfonyl)benzamide], 6.84; with `CC(C)COc1ccc2c(cnn2-c2cc(F)c(C(=O)NS(C)(=O)=O)cc2Cl)c1` [Example 41, 5-chloro-2-fluoro-4-(5-isobutoxy-1H-indazol-1-yl)-N-(methylsulfonyl)benzamide], 5.20.
As to `CS(=O)(=O)NC(=O)c1cc(Cl)c(-n2cc(-c3ccc(Cl)c(F)c3)c3cc(F)cnc32)cc1F` [Example 210, 5-chloro-4-(3-(4-chloro-3-fluorophenyl)-5-fluoro-1H-pyrrolo[2,3-b]pyridin-1-yl)-2-fluoro-N-(methylsulfonyl)benzamide], the pIC50 was 7.22.
Same read-out and setting: with `Cc1ccc(-c2nn(-c3cc(F)c(C(=O)NS(C)(=O)=O)cc3Cl)c3ccc(F)cc23)cc1` [Example 156, 5-chloro-2-fluoro-4-(5-fluoro-3-(p-tolyl)-1H-indazol-1-yl)-N-(methylsulfonyl)benzamide] the figure was 7.00.
Still for that read-out and setting: under `CS(=O)(=O)NC(=O)c1cc(Cl)c(-n2cc(-c3ccc(Cl)cc3)c3cc(Cl)ccc32)cc1F` [Example 272, 5-chloro-4-(5-chloro-3-(4-chlorophenyl)-1H-indol-1-yl)-2-fluoro-N-(methylsulfonyl)benzamide] stands 6.43; under `CC(=O)NC(=O)c1cc(Cl)c(-n2nc(-c3ccc(Cl)cc3F)c3cc(Cl)ccc32)cc1F` [Example 293, N-acetyl-5-chloro-4-(5-chloro-3-(4-chloro-2-fluorophenyl)-1H-indazol-1-yl)-2-fluorobenzamide], below 5.00.
In the case of `CS(=O)(=O)NC(=O)c1ccc(-n2nc(-c3ccccc3F)c3cc(Cl)ccc32)c(F)c1` [Example 124, 4-(5-chloro-3-(2-fluorophenyl)-1H-indazol-1-yl)-3-fluoro-N-(methylsulfonyl)benzamide], the pIC50 was 6.54.
Same read-out and setting: under `CS(=O)(=O)NC(=O)c1cc(Cl)c(-n2cc(-c3ccc(Cl)nc3)c3cc(Cl)ccc32)cc1F` [Example 273, 5-chloro-4-(5-chloro-3-(6-chloropyridin-3-yl)-1H-indol-1-yl)-2-fluoro-N-(methylsulfonyl)benzamide] stands 6.74.
The same measure, in the same setting: with `CS(=O)(=O)NC(=O)c1ccc(-n2nc(-c3ccc(F)cc3)c3cc(Cl)ccc32)c(F)c1` [Example 123, 4-(5-chloro-3-(4-fluorophenyl)-1H-indazol-1-yl)-3-fluoro-N-(methylsulfonyl)benzamide] the figure was 6.46; with `COc1ccc(-c2nn(-c3cc(F)c(C(=O)NS(C)(=O)=O)cc3Cl)c3ccc(F)cc23)cc1` [Example 155, 5-chloro-2-fluoro-4-(5-fluoro-3-(4-methoxyphenyl)-1H-indazol-1-yl)-N-(methylsulfonyl)benzamide], 6.96.
Still for that read-out and setting: with `O=S(=O)(Nc1cscn1)c1cc(Cl)c(-n2nc(Cl)c3cc(-c4ccccc4)ccc32)cc1F` [Example 276, 5-chloro-4-(3-chloro-5-phenyl-1H-indazol-1-yl)-2-fluoro-N-(thiazol-4-yl)benzenesulfonamide] the figure was below 5.00.
On to `CS(=O)(=O)NC(=O)c1cc(Cl)c(-n2nc(-c3cnccc3F)c3ccccc32)cc1F` [Example 177, 5-chloro-2-fluoro-4-(3-(4-fluoropyridin-3-yl)-1H-indazol-1-yl)-N-(methylsulfonyl)benzamide], for which the pIC50 is 6.01.
The same measure, in the same setting: under `CS(=O)(=O)NC(=O)c1cc(Cl)c(-n2nc(-c3ccccc3)c3cc(-c4ccccc4)ccc32)cc1F` [Example 264, 5-chloro-4-(3,5-diphenyl-1H-indazol-1-yl)-2-fluoro-N-(methylsulfonyl)benzamide] stands 6.79; under `CS(=O)(=O)NC(=O)c1cc(Cl)c(-n2nc(-c3ccc(C#N)cc3)c3cc(Cl)ccc32)cc1F` [Example 62, 5-chloro-4-(5-chloro-3-(4-cyanophenyl)-1H-indazol-1-yl)-2-fluoro-N-(methylsulfonyl)benzamide], 6.26; under `CS(=O)(=O)NC(=O)c1cc(Cl)c(-n2cc(-c3ccccc3Cl)c3cc(Cl)cnc32)cc1F` [Example 198, 5-chloro-4-(5-chloro-3-(2-chlorophenyl)-1H-pyrrolo[2,3-b]pyridin-1-yl)-2-fluoro-N-(methylsulfonyl)benzamide], 6.77.
Turning to `CS(=O)(=O)N(Cc1ccc2ccccc2c1)C(=O)c1cc(Cl)c(-n2nc(Cl)c3cc(O)ccc32)cc1F` [Example 140, 5-chloro-4-(3-chloro-5-hydroxy-1H-indazol-1-yl)-2-fluoro-N-(methylsulfonyl)-N-(naphthalen-2-ylmethyl)benzamide], the pIC50 was below 5.00.
As for `Cc1ccccc1-c1nn(-c2cc(F)c(C(=O)NS(C)(=O)=O)cc2Cl)c2ccccc12` [Example 173, 5-chloro-2-fluoro-N-(methylsulfonyl)-4-(3-(o-tolyl)-1H-indazol-1-yl)benzamide], the pIC50 was 6.68.
On the same count and under the same terms, with `CS(=O)(=O)NC(=O)c1cc(Cl)c(-n2cc(-c3ccc(F)cc3)c3cc(F)cnc32)cc1F` [Example 206, 5-chloro-2-fluoro-4-(5-fluoro-3-(4-fluorophenyl)-1H-pyrrolo[2,3-b]pyridin-1-yl)-N-(methylsulfonyl)benzamide] the figure was 6.68.
Take `CS(=O)(=O)NC(=O)c1cc(Cl)c(-n2nc(-c3ccc(C(F)(F)F)cc3)c3cc(Cl)ccc32)cc1F` [Example 65, 5-chloro-4-(5-chloro-3-(4-(trifluoromethyl)phenyl)-1H-indazol-1-yl)-2-fluoro-N-(methylsulfonyl)benzamide]: the pIC50 is 7.55.
In the case of `CS(=O)(=O)NC(=O)c1cc(Cl)c(-n2nc(-c3ccnc(F)c3)c3cc(Cl)ccc32)cc1F` [Example 68, 5-chloro-4-(5-chloro-3-(2-fluoropyridin-4-yl)-1H-indazol-1-yl)-2-fluoro-N-(methylsulfonyl)benzamide], the pIC50 was 6.23.
Same read-out and setting: with `CS(=O)(=O)NC(=O)c1cc(F)c(-n2nc(-c3cccc(C(F)(F)F)c3)c3cc(Cl)ccc32)cc1Cl` [Example 110, 2-chloro-4-(5-chloro-3-(3-(trifluoromethyl)phenyl)-1H-indazol-1-yl)-5-fluoro-N-(methylsulfonyl)benzamide] the figure was 6.57.
For `CC(C)(C)OC(=O)N1CC=C(c2nn(-c3cc(F)c(C(=O)NS(C)(=O)=O)cc3Cl)c3ccc(Cl)cc23)CC1` [Example 131, tert-butyl 4-(5-chloro-1-(2-chloro-5-fluoro-4-((methylsulfonyl)carbamoyl)phenyl)-1H-indazol-3-yl)-3,6-dihydropyridine-1(2H)-carboxylate], the pIC50 is 5.59.
In the case of `CS(=O)(=O)NC(=O)c1ccc(-n2nc(-c3cccc(C#N)c3)c3cc(Cl)ccc32)c(C#N)c1` [Example 95, 4-(5-chloro-3-(3-cyanophenyl)-1H-indazol-1-yl)-3-cyano-N-(methylsulfonyl)benzamide], the pIC50 was below 5.00.
Same read-out and setting: under `CS(=O)(=O)NC(=O)c1cc(Cl)c(-n2nc(Cl)c3cc(OCc4ccccc4F)ccc32)cc1F` [Example 37, 5-chloro-4-(3-chloro-5-((2-fluorobenzyl)oxy)-1H-indazol-1-yl)-2-fluoro-N-(methylsulfonyl)benzamide] stands 6.80.
For the compound `CS(=O)(=O)NC(=O)c1cc(Cl)c(-n2nc(Cl)c3cc(-c4ccc(F)c(C#N)c4)ccc32)cc1F` [Example 239, 5-chloro-4-(3-chloro-5-(3-cyano-4-fluorophenyl)-1H-indazol-1-yl)-2-fluoro-N-(methylsulfonyl)benzamide], the pIC50 was 6.55.
With `CS(=O)(=O)NC(=O)c1cc(Cl)c(-n2nc(-c3ccc(N)cc3)c3cc(Cl)ccc32)cc1F` [Example 82, 4-(3-(4-aminophenyl)-5-chloro-1H-indazol-1-yl)-5-chloro-2-fluoro-N-(methylsulfonyl)benzamide], the pIC50 was 5.10.
In the case of `CS(=O)(=O)NC(=O)c1cc(Cl)c(-n2nc(Cl)c3cc(Cl)cnc32)cc1F` [Example 3, 5-chloro-4-(3,5-dichloro-1H-pyrazolo[3,4-b]pyridin-1-yl)-2-fluoro-N-(methylsulfonyl)benzamide], the pIC50 is 5.95.
On to `CS(=O)(=O)NC(=O)c1cc(Cl)c(-n2cc(-c3cccc(F)c3)c3cccnc32)cc1F` [Example 214, 5-chloro-2-fluoro-4-(3-(3-fluorophenyl)-1H-pyrrolo[2,3-b]pyridin-1-yl)-N-(methylsulfonyl)benzamide], for which the pIC50 is 6.47.
In the case of `CS(=O)(=O)NC(=O)c1ccc(-n2nc(-c3ccccc3C(F)(F)F)c3cc(Cl)ccc32)c(C#N)c1` [Example 97, 4-(5-chloro-3-(2-(trifluoromethyl)phenyl)-1H-indazol-1-yl)-3-cyano-N-(methylsulfonyl)benzamide], the pIC50 is 6.77.
Take `CS(=O)(=O)NC(=O)c1ccc(-n2nc(-c3ccc(Cl)cc3)c3cc(Cl)ccc32)c(F)c1` [Example 126, 4-(5-chloro-3-(4-chlorophenyl)-1H-indazol-1-yl)-3-fluoro-N-(methylsulfonyl)benzamide]: the pIC50 was 6.00.
The same measure, in the same setting: with `CS(=O)(=O)NC(=O)c1ccc(-n2nc(-c3cccc(C(F)(F)F)c3)c3cc(Cl)ccc32)c(F)c1` [Example 121, 4-(5-chloro-3-(3-(trifluoromethyl)phenyl)-1H-indazol-1-yl)-3-fluoro-N-(methylsulfonyl)benzamide] the figure was 5.96.
